ChEMBL document CHEMBL5321296, “Structure-Based Ligand Discovery Targeting the Transmembrane Domain of Frizzled Receptor FZD7” (J Med Chem, 2023)
The source made the active and inactive calls. The calls are words filed in the database; no cut-off is given here.

What was measured:
[1] = Inhibition of Wnt/beta-catenin signalling in Wnt3a stimulated human HEK293 cells assessed as reduction in luciferase activity incubated for 24 hrs by TOPFlash luciferase reporter assay; type: cell-based; conditions: HEK293, 24 h
[2] = molecular target: Frizzled-7 (Homo sapiens, UniProt O75084); assay: Antagonist activity at his-tagged FZD7 transmembrane domain (unknown origin) assessed as dissociation constant by SPR analysis
[3] = molecular target: Protein smoothened (Homo sapiens) (UniProt Q99835); assay: Binding affinity to SMO (unknown origin) assessed as dissociation constant by SPR analysis
Chain of Protein smoothened (Homo sapiens) (Q99835 whole entry): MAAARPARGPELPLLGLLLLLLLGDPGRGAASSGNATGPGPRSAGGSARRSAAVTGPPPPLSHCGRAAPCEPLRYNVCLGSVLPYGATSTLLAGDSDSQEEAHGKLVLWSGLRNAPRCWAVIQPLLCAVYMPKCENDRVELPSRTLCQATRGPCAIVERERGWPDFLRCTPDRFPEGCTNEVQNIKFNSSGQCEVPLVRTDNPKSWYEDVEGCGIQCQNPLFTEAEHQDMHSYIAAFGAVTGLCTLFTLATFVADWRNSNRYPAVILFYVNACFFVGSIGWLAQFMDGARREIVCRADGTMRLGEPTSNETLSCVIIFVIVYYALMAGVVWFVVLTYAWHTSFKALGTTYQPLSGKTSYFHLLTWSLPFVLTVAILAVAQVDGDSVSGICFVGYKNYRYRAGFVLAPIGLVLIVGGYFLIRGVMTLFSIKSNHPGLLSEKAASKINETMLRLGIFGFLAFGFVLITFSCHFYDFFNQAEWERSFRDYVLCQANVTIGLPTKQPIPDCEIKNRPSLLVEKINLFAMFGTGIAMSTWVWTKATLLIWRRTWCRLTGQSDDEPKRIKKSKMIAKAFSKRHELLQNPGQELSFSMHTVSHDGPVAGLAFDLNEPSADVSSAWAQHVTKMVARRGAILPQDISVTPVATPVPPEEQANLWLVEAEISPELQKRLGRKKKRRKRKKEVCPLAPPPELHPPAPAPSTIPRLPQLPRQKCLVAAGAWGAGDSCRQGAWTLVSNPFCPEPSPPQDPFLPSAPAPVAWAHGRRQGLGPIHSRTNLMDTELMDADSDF

SMILES | IC50 [1] [nM] | Kd [2] [nM] | Activity [3]
Cc1ccc(C(=O)Nc2ccc(SCC(=O)Nc3nc(-c4ccccc4)cs3)cc2)c(C)c1 | 40 |  | 
Cc1ccc(C(=O)Nc2ccc(SCC(=O)Nc3nc(-c4ccccc4)cs3)cc2)cc1 | 230 |  | 
O=C(CSc1ccc(NC(=O)c2ccc(F)cc2)cc1)Nc1nc(-c2ccccc2)cs1 | 1280 | 160 | inactive
